Key:
[1] = biological target: T1, acyl-coenzyme A:cholesterol acyltransferase 1 (ACAT1) (Homo sapiens, UniProt P35610); assay: [3H]oleate incorporation into cholesteryl oleate in CHO-ACAT1 cells; type: cell-based
T1 sequence (P35610 1-550): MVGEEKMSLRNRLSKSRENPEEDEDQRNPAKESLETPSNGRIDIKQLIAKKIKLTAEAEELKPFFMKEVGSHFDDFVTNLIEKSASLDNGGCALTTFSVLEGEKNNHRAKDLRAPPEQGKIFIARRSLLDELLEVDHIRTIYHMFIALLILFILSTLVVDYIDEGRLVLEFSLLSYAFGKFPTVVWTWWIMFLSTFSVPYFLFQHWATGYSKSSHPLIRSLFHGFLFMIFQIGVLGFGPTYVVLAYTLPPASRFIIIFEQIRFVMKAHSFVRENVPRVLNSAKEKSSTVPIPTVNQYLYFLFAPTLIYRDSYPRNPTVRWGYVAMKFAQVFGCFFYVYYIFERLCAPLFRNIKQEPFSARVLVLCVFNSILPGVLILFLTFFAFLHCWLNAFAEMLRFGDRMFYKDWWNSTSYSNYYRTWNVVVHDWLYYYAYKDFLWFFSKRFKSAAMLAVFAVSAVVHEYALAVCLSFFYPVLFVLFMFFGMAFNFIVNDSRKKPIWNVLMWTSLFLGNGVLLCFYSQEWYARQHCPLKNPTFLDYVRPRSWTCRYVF

[2] = biological target: T2, acyl-coenzyme A:cholesterol acyltransferase 2 (ACAT2) (Homo sapiens, UniProt O75908); assay: [3H]oleate incorporation into cholesteryl oleate in CHO-ACAT2 cells; type: cell-based
T2 sequence (O75908 1-522): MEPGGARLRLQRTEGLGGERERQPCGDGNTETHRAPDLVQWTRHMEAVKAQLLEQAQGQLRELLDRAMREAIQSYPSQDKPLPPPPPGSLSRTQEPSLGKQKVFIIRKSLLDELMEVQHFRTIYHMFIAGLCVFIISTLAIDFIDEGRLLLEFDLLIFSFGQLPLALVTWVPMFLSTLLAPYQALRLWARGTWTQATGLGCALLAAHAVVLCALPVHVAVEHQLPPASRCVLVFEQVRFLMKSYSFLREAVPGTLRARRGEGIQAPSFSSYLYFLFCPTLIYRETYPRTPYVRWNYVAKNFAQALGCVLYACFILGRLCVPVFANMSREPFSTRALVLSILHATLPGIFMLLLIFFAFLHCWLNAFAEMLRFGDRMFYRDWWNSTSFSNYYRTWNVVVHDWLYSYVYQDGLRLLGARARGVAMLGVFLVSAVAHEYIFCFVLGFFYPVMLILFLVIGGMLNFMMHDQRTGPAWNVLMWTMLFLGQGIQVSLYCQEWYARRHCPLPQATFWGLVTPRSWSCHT

Cc1c(C(=O)NN2CCCCC2)nn(-c2ccc(Cl)cc2Cl)c1-c1ccc(Cl)cc1 [Rimonabant]
IC50 [1]: 1.5 ± 1.2 µM
IC50 [2]: 2.2 ± 1.1 µM

Reference: paper PMC2918681 (Biochemical and biophysical research communications, 2010)
